The record followed here is the supplement of paper PMC10307832.

Common to all, as to test: relative viability (nuclei count vs DMSO), 5 days (fraction); higher = more cells survive
Compound in assay [1]: CC1=CC=C(C=C1)C(=O)CN2C3=C(CCCC3)SC2=N [Pifithrin_alpha] + C[C@]1(O)C[C@@H](c2nc(-c3ccc4ccc(-c5ccccc5)nc4c3)c3c(N)nccn32)C1 [Linsitinib] (partner 1 µM)
In short, it runs like this:
(§1)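 Five library-drug doses in √10 steps were combined with a fixed anchor-drug dose, or a single drug was given alone, by pin tool to lung cancer cell lines in 1536-well plates the day after seeding. Nuclei were stained and counted after 5 days. Relative viability is the nuclei count in treated wells over that in vehicle wells, taken as the median of duplicate plates.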

Compound in the assay “Axitinib + Lapatinib”: CNC(=O)c1ccccc1Sc1ccc2c(/C=C/c3ccccn3)n[nH]c2c1 [Axitinib] + CS(=O)(=O)CCNCc1ccc(-c2ccc3ncnc(Nc4ccc(OCc5cccc(F)c5)c(Cl)c4)c3c2)o1 [Lapatinib] (partner 2 µM)
In short, it runs like this: as §1

Compound in assay [2]: CC1=CC=C(C=C1)C(=O)CN2C3=C(CCCC3)SC2=N [Pifithrin_alpha] + CC(=O)c1c(C)c2cnc(Nc3ccc(N4CCNCC4)cn3)nc2n(C2CCCC2)c1=O [Palbociclib] (partner 0.5 µM)
In short, it runs like this:
as §1

Compound in assay [3]: CC1=CC=C(C=C1)C(=O)CN2C3=C(CCCC3)SC2=N [Pifithrin_alpha] + O=C(c1cc(Cc2n[nH]c(=O)c3ccccc23)ccc1F)N1CCN(C(=O)C2CC2)CC1 [Olaparib] (partner 8 µM)
In short, it runs like this: as §1

In the case of NCI-H650, the relative viability in assay [1] (first compound 3.162 µM) came to 1; in assay [1] (first compound 10 µM), 0.778; in assay [1] (first compound 31.62 µM), 0.524; in assay [1] (first compound 100 µM), 0.807; in the assay with Axitinib + Lapatinib (first compound 0.005 µM), 0.792; in the assay with Axitinib + Lapatinib (first compound 0.01581 µM), 0.837. Further, the relative viability with Axitinib + Lapatinib (first compound 0.05 µM) worked out at 1.08; with Axitinib + Lapatinib (first compound 0.1581 µM), 0.919; with Axitinib + Lapatinib (first compound 0.5 µM) it was 0.932; in assay [2] (first compound 3.162 µM), 0.371; in assay [2] (first compound 10 µM) it was 0.328; in assay [2] (first compound 31.62 µM), 0.204. For the same cell line, the relative viability in assay [2] (first compound 100 µM) was 0.327; in assay [3] (first compound 3.162 µM), 0.398; in assay [3] (first compound 10 µM), 0.339; in assay [3] (first compound 31.62 µM) it was 0.221; in assay [3] (first compound 100 µM), 0.355.
